Patent publication US20190331687A1, “CANCER TREATMENT” (PFIZER INC., priority 2014, published 2019)

System: metastatic renal cell carcinoma (mRCC)
Experiment: Study A4061032 (AXIS phase 3 trial): PFS and OS of axitinib-treated mRCC patients by tumor CD68 IHC stratum (median cut off)
Type: in vivo, human
Conditions: for median OS / median progression free survival (PFS): regardless of prior treatment
Excerpt: Study A4061032 (ClinicalTrials.gov Identifier: NCT00678392) was a phase 3 registrational trial entitled “Axitinib (AG-013736) as second line therapy for metastatic renal cell cancer: Axis trial”. […] A total of 650 patients were planned to be enrolled, and 723 subjects were eventually enrolled in the study.
As described in further detail in the Examples, formalin-fixed paraffin embedded (FFPE) tumor samples were collected from patients who participated in A4061032, and who provided specific consent for collection of tumor sample. Tumor myeloid (cluster of differentiation 68 “CD68”) or lymphocyte (cluster of differentiation 3 “CD3”) infiltration was assessed by immunohistochemistry (IHC) in tumor samples from 52 axitinib-treated patients. The aim was to investigate the potential association of these biomarkers with efficacy, consistent with the hypothesis that myeloid infiltration confers resistance to anti-angiogenic agents targeting the VEGF-VEGFR2 pathway (see Shojaei et al. (2007) Nat. Biotechnol. 25(8):911-920; and Lin et al. (2010) Eur. J. Cancer Suppl. 8(7): 191).
The evaluation of CD3 and CD68 was performed by image analysis from a whole slide scan. The region of interest was circled, and an image analysis algorithm was run. The percentage of positive cells (number of positive cells/total number of cells) and the density of positive cells (e.g. number of positive cells/mm^2) was measured. Some patients donated FFPE blocks, and some donated slides cut from blocks. Samples from all patients were analyzed, whether they were provided as slides or blocks.
This study was a 2-arm, randomized, open-label, multi-center phase 3 study of axitinib versus sorafenib in patients with metastatic renal cell carcinoma (mRCC), after failure following one prior systematic first-line regimen containing one or more of the following agents: sunitinib, bevacizumab+IFN α, temsirolimus, or cytokine(s). Overall, 723 patients with mRCC were randomized and enrolled in this study, among which 52 axitinib-treated patients were evaluable for immunohistochemistry (IHC) analysis; further, 33 of the 52 patients were previously treated with Sutent®.
All 52 patients were evaluable for both CD3 and CD68. Of the 52 CD3 and CD68 evaluable patients, 26 donated formalin-fixed paraffin embedded (FFPE) tumor blocks, and 26 donated slides for analysis. Mosaic Laboratories provided FFPE material representing human normal and human cancer. Specimens were procured under an IRB-reviewed protocol (MOS001) that allows for use of remnant, de-identified, or anonymized human samples for in vitro analysis under the guidelines defining ‘Exemption from Human Subject Research’ as defined by the Office of Human Research Protection. The CD68 mouse monoclonal KP1 antibody (Catalog# M0814, Lot#46406, Expiration date: September 2011) was purchased from Dako (Carpinteria, Calif., United States) and stored at 2-8° C. in accordance with accompanying documentation. The mouse IgG isotype control antibody (Lot#37211, Expiration date: July 2010) was purchased from Dako and stored at 2-8° C. in accordance with accompanying documentation. IHC was performed in accordance with Mosaic Laboratories' SOPs. The CD68 IHC assay was designed and validated to be compatible with CLIA guidelines for “homebrew” class I test validation.
For IHC biomarker analysis, the Biomarker Analysis Set was used, which included all patients who received at least one dose of study treatment. The following efficacy endpoints were analyzed: PFS, OS, and objective response rate (ORR). Summary statistics were provided for percent and density of positive cells by response category (complete response [CR]+partial response [PR] versus stable disease [SD]+progressive disease [PD]) for each marker). The Wilcoxon Rank Sum test was performed to test for difference between response categories. Fisher's exact test was used to test for association between response category and biomarker stratum using median value as cut off point.

[1] = patients with <median CD68 cell density (cut off 0.08 cells/mm^2)
[2] = patients with <median CD68 percentage of positive cells (cut off 5.21%)
[3] = patients with >=median CD68 cell density (cut off 0.08 cells/mm^2)
[4] = patients with >=median CD68 percentage of positive cells (cut off 5.21%)

CNC(=O)c1ccccc1Sc1ccc2c(/C=C/c3ccccn3)n[nH]c2c1 [axitinib, 6-[2-(methylcarbamoyl)phenylsulfanyl]-3-E-[2-(pyridin-2-yl)ethenyl]indazole]
hazard ratio (HR) for OS (>=median vs <median CD68 values, all cases, not statistically significant): > 0.6
hazard ratio [HR] for PFS (>=median vs <median CD68 values, logrank p-value<=0.01, all patients regardless of prior treatment): 0.42
median OS [1]: 17.8 months
median progression free survival (PFS) [1]: 3.8 months
median OS [2]: 21.8 months
median progression free survival (PFS) [2]: 3.7 months
median OS [3]: 22.6 months
median progression free survival (PFS) [3]: 12.0 months
median OS [4]: 20.0 months
median progression free survival (PFS) [4]: 12.0 months
